# Experimental data from patent US10273290B2, “Hydrocarbon double-stapled stabilized HIV-1 GP41 heptad repeat domain peptides” (DANA-FARBER CANCER INSTITUTE, INC., priority 2009, dated 2019).
# Bridge positions count the residues as written; N and C are the ends. Square brackets hold non-standard residues; d marks the D form. Peptide text beside a SMILES is read from it. S5 = C=CCCC[C@](C)(N)C(=O)O; Nle = CCCC[C@H](N)C(=O)O
# Experiments:
# in vivo = settings: mouse, plasma, iv
# From the text: Plasma concentration, mean+standard error; ND, nondetectable.
# pepsin = test: Protease resistance assay, pepsin at pH 2
# In short: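 Peptide from a 1 mM DMSO stock was incubated with pepsin in its appropriate buffer. Intact peptide was quantified over time by serial LC-MS injections, normalized to a 100 μM acetylated tryptophan carboxamide internal standard. Half-life came from nonlinear regression of the exponential decay.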
# [1] = Circular dichroism, α-helical content; format: physicochemical; settings: pH 2 versus pH 7
# In short: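 Far-UV CD spectra recorded at 20° C, 190-260 nm, 0.1 cm path, 10 accumulations. Percent α-helicity from mean residue ellipticity at 222 nm: 100×[θ]222/max[θ]222, with max[θ]222=−40,000×[1−(2.5/number of residues)]. Secondary-structure fractions also estimated by CDNN curve-fitting.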
smiles,measurement,setting,value
"CCCC[C@H](NC(C)=O)C(=O)N[C@H](C(=O)N[C@@H](Cc1c[nH]c2ccccc12)C(=O)N[C@@]1(C)CCCC=CCCC[C@@](C)(C(=O)N[C@@H](CCC(=O)O)C(=O)N[C@H](C(=O)N[C@@H](CC(N)=O)C(=O)N[C@@H](CC(N)=O)C(=O)N[C@@H](Cc2ccc(O)cc2)C(=O)N[C@H](C(=O)N[C@@H](CO)C(=O)N[C@@H](CC(C)C)C(=O)N[C@H](C(=O)N[C@@H](Cc2c[nH]cn2)C(=O)N[C@@H](CO)C(=O)N[C@@H](CC(C)C)C(=O)N[C@H](C(=O)N[C@@H](CCC(=O)O)C(=O)N[C@@H](CCC(=O)O)C(=O)N[C@@H](CO)C(=O)N[C@@H](CCC(N)=O)C(=O)N[C@@H](CC(N)=O)C(=O)N[C@@H](CCC(N)=O)C(=O)N[C@@]2(C)CCCC=CCCC[C@@](C)(C(=O)N[C@@H](CCC(N)=O)C(=O)N[C@@H](CCC(=O)O)C(=O)N[C@@H](CC(C)C)C(=O)N[C@@H](CC(C)C)C(=O)N[C@@H](CCC(=O)O)C(N)=O)NC(=O)[C@H](CC(N)=O)NC(=O)[C@H](CCCCN)NC(=O)[C@H](CCC(=O)O)NC2=O)[C@@H](C)CC)[C@@H](C)CC)[C@@H](C)O)[C@@H](C)CC)NC(=O)[C@H](CC(=O)O)NC(=O)[C@H](Cc2c[nH]c3ccccc23)NC(=O)[C@H](CCC(=O)O)NC1=O)[C@@H](C)O [SAH-gp41(626-662)(A, F)] (Ac-[Nle]TW[S5]EWD[S5]EINNYTSLIHSLIEESQNQ[S5]EKN[S5]QELLE-NH2; staple 4-8, 28-32; N-terminus and C-terminus assumed)",Cmax,in vivo,140 µg/mL
same,half-life at 25 μM,"pepsin; pepsin (isolated protease) in buffer, pH 2",34 h
same,"acid protease resistance, in words",pepsin; pepsin at pH 2,striking acid protease resistance
same,"α-helicity, in words",[1],even greater α-helicity at pH 2 than at pH 7
